17 compounds from patent US7528274B2, “Acylthiols and component thiol compositions as anti-HIV and anti-retroviral agents” (The United States of America as represented by the …, priority 2001, dated 2009) can be followed below.

Data set [1] has as its system HIV-1 1026040 (mutation V32I/M46I/L63P/L90M). The experiment in a line: XTT assay against drug resistant mutant HIV-1 1026040. The format is cell-based. An excerpt: (§1) One exemplary means to determine antiviral activity is with CEM-SS cells and virus (e.g., HIV-1RF) (MOI=0.01) using the XTT {2,3-bis[2-methoxy-4-nitro-5-sulfophenyl]-5- -[(phenylamino)carbonyl]-2H-tetrazolium hydroxide} cytoprotection assay, as described by Rice (1993) Proc. Natl. Acad. Sci. USA 90: 9721-9724, and Rice (1997) Antimicrob. Agents & Chemother. […] Briefly, cells are infected with HIV-1RF (or other virus to be tested) in the presence of various dilutions of test compounds and controls. The cultures are incubated for seven days. […] The cell death is measured by XTT dye reduction. XTT is a soluble tetrazolium dye that measures mitochondrial energy output, similar to MTT. […] Individual assays are done in duplicate using a sister plate method. […] Compound numbers therein refer to the numbers used in FIG. 1.

The test system of a further data set is SIV (Mac 251). Nature of the data set: XTT cytoprotection assay, SIV (Mac 251). The format is cell-based.
Description: as §1

The subject of a further data set is CEM-SS. The experiment in a line: XTT assay, cytotoxicity, HIV-2 (Rod/CEM-SS) section. The format is cell-based.
Description: as §1

In data set [2] the test system is cells. Nature of the data set: XTT assay, cytotoxicity, HIV-1 1026040 section. The format is cell-based.
Description: as §1

For data set [3], the system named is PBMCs. Nature of the data set: XTT assay, cytotoxicity, HIV-1 144-44/PBMCs section. The format is cell-based.
Description: as §1

The next data set relates to HIV-1RF. Nature of the data set: XTT cytoprotection assay, CEM-SS cells infected with HIV-1RF. The format is cell-based. As to conditions: for EC50: read-out: EC50 (50% cytoprotection).
Description: (§2) One exemplary means to determine antiviral activity is with CEM-SS cells and virus (e.g., HIV-1RF) (MOI=0.01) using the XTT (2,3-bis[2-methoxy-4-nitro-5-sulfophenyl]-5-[(phenylamino)carbonyl]-2H-tetrazolium hydroxide) cytoprotection assay, as described by Rice (1993) PNAS 90:9721-9724, and Rice (1997) Antimicrob. Agents Chemother. […] Briefly, cells are infected with HIV-1RF (or other virus to be tested) in the presence of various dilutions of test compounds or control compounds. The cultures are incubated for seven days. […] The cell death is measured by XTT dye reduction. XTT is a soluble tetrazolium dye that measures mitochondrial energy output, similar to MTT. […] Individual assays are done in duplicate using a sister plate method.
as §1

A further data set concerns HIV-2 (Rod). Nature of the data set: XTT cytoprotection assay, HIV-2 (Rod/CEM-SS). The format is cell-based.
Description: as §1

The next data set concerns HIV-1 (RoJo). The format is cell-based. As to conditions: HIV-1 (RoJo/PBMCs).
Description: as §1

Data set [4] concerns PBMCs. Nature of the data set: XTT assay, cytotoxicity, HIV-1 (RoJo/PBMCs) section. The format is cell-based.
Description: as §1

For data set [5], the system named is cells. Nature of the data set: XTT assay, cytotoxicity, SIV (Mac 251) section. The format is cell-based.
Description: as §1

The subject of data set [6] is HIV-1 144-44 (mutation L10I/M46I/I54V/L63P/A71V/V82A/L90M). The experiment in a line: XTT assay against drug resistant mutant HIV-1 144-44 in PBMCs. The format is cell-based. As to conditions: HIV-1 144-44/PBMCs.
Description: as §1

In the next data set the test system is HIV p24. The experiment in a line: p24 inhibition ELISA assay, HIV transgenic mouse model spleen cells. The format is cell-based. As to conditions: for EC50: Human immunodeficiency virus 1; for Therapeutic Index: p24 inhibition ELISA, HIV transgenic mouse model spleen cells. An excerpt: (§3) One of the advantages of the compounds of the present invention over previously identified antiretroviral agents is their increased hydrolytic stability, which improves their biological activity and reduces the amount of compound that must be delivered to a treated subject to produce the desired effect. […] A PATE compound having the following structure is included: […]

The nature of data set [7]: XTT assay, cytotoxicity (cellular growth inhibition) in CEM-SS cells. The format is cell-based. As to conditions: human.
Description: as §2, §1

Data set [8] can be described thus: Hydrolysis assay (relative rates of hydrolysis). The format is in vitro ADME.
Description: as §3

Data set [9] deals with HIV transgenic mouse model spleen cells. The experiment in a line: Cytotoxicity, HIV transgenic mouse model spleen cells. The format is cell-based.
Description: as §3

The subject of a further data set is CEM-SS cells. Nature of the data set: XTT assay, cytotoxicity (cellular growth inhibition) in CEM-SS cells. The format is cell-based. As to conditions: read-out: IC50 (50% cytotoxicity).
Description: as §2, §1

A further data set relates to HIV-1 virus. Nature of the data set: Infectivity of treated virions, PCR assay for intracellularly-synthesized viral RNA. The format is cell-based. The source says:
The treated virions can also be tested for infectivity. The virions are suspended in media (rather than solubilized) and added to target cells. The cultures are then examined to determine whether the virions are still active. To determine whether the treated virus particles are active, the cells are monitored for the presence of intracellularly-synthesized viral RNA using, for example, the polymerase chain reaction (PCR) (Rice (1993) Proc. Natl. Acad. Sci. USA 90:9721; Turpin (1996) J. Virol. 70:6180). Alternatively, cytoprotection assays can be used (Weislow (1993) J. Natl. Cancer Inst. 81:577). An example of a compound which can be used as a control in the gel mobility shift assay is azodicarbonamide (ADA), a compound which is commercially available from the Aldrich Chemical Company (Milwaukee, Wis.).

The mark [10] stands for this setting: HIV-1RF, CEM-SS cells, seven days, XTT.
Setting [11] is: Human immunodeficiency virus 1, 168 h, HIV-1RF, CEM-SS cells, seven days, XTT.

SMILES strings stand for the structures. Like-named read-outs stand apart in the source and are kept apart here.

In the case of `NC(=O)C1CN1C(=O)c1ccccc1SC(=O)NC1CCCCC1` (centres unmarked) [Compound 129], the EC50 turned out to be 4 µM in data set [1]; 0.29 µM in the data set on SIV (Mac 251); 0.55 µM with HIV-1RF (setting [10]); 0.104 µM with HIV-2 (Rod); 3.8 µM in the data set with HIV-1 (RoJo); 0.17 µM in data set [6]. In addition, the figures for the TI in data set [1] and in [6] were above 51 and above 1168, respectively. The IC50 was 6.54 µM in the data set with CEM-SS; above 200 µM in the data set with cells [2]; above 200 µM in the data set with PBMCs [3]; 184 µM in the data set on PBMCs [4]; 21.8 µM with cells [5].
Take `COc1ccc(C(=O)Sc2ccccc2C(=O)NCCC(N)=O)cc1OC` [Compound 11]: the EC50 in the data set on HIV p24 was 3.6 µM; in the data set with HIV-1RF (setting [11]) it was 6.9 µM. In addition, the “Therapeutic Index” value is above 69 in the data set on HIV p24 and 24 with HIV-1RF (HIV-1RF, CEM-SS cells). Besides, the midpoint of inhibition in data set [7], the IC50 at 7 days, lay at 165 µM. Further, in data set [8], the half-life is 4.07 h. In data set [9], this compound had an IC50 above 250 µM.
Consider `Cc1ccccc1C(=O)Sc1ccccc1C(=O)NCCC(N)=O` [Compound 22], for which the figures for the EC50 with HIV p24 and in the data set on HIV-1RF (setting [11]) were 2.6 µM and 9.7 µM, respectively. Besides, the “Therapeutic Index” value with HIV p24 is 23; in the data set on HIV-1RF (HIV-1RF, CEM-SS cells), 2.3. In data set [7], this compound displayed a half-inhibitory concentration (IC50) at 7 days of 22 µM. Moreover, the half-life in data set [8] turned out to be 6.8 h. This compound also came in with an IC50 in data set [9] of 59 µM.
For `Cc1cn([C@H]2C[C@H](N=[N+]=[N-])[C@@H](CO)O2)c(=O)[nH]c1=O` [AZT, 3′-azido-2′, 3′-dideoxythymidine, reference compound], the EC50 in [1] turned out to be 0.006 µM; in the data set with SIV (Mac 251), 0.02 µM; with HIV-2 (Rod), 0.017 µM; in the data set on HIV-1 (RoJo), 0.01 µM; in data set [6], 1.3 µM. The figures for the TI in data set [1] and in data set [6] were above 167 and above 153, respectively. Besides, the IC50 in the data set on CEM-SS was above 1 µM; in the data set with cells [2] it was above 1 µM; in the data set on PBMCs [3] it was above 200 µM; with PBMCs [4] it was above 4 µM; with cells [5] it was above 1 µM.
The compound `Cc1cccc(C(=O)NCCC(N)=O)c1SC(=O)c1ccccc1` [Compound 61] gave an EC50 in the data set on HIV p24 of 15.7 µM. The compound further had a half-life in data set [8] of 7.02 h.
Take `C[C@@H](NC(=O)c1ccccc1SC(=O)OCCBr)C(N)=O` [Compound 103]: 254 µM corresponded to half-maximal inhibition in data set [7] (IC50 at 7 days). Also, the “Therapeutic Index” value with HIV-1RF (HIV-1RF, CEM-SS cells) is 76. The concentration giving a half-maximal response (EC50) in the data set on HIV-1RF (setting [11]) came to 3.34 µM.
As to `CC(C)(C)CC(C)(C)NC(=O)Sc1ccccc1C(=O)N1CC1C(N)=O` (centres unmarked) [Compound 131], in the data set with CEM-SS cells, the half-maximal inhibitory concentration (IC50) was determined as 35.8 µM. Also, in the data set with HIV-1RF (HIV-1RF, CEM-SS cells), the “Therapeutic Index” value worked out at 80. For the same compound, the EC50 with HIV-1RF (setting [10]) stood at 0.45 µM.
Regarding `CC(C)(C)c1ccc(C(=O)Sc2ccccc2C(=O)NCCC(N)=O)cc1` [Compound 23], the 50% effective concentration (EC50) was found to be 2.2 µM in the data set with HIV p24 and 4.5 µM with HIV-1RF (setting [11]). The “Therapeutic Index” value in the data set with HIV p24 was found to be 56; in the data set on HIV-1RF (HIV-1RF, CEM-SS cells), 24. The compound further displayed a concentration for half-maximal inhibition (IC50) at 7 days in data set [7] of 107 µM. Further, the half-life in [8] was above 8.33 h. This compound also returned an IC50 in data set [9] of 123 µM.
As for `COc1ccc(C(=O)Sc2ccccc2C(=O)NCCC(N)=O)cc1` [Compound 13], inhibition in data set [7] was half-maximal at 42 µM (IC50 at 7 days). The “Therapeutic Index” value in the data set with HIV-1RF (HIV-1RF, CEM-SS cells) is listed as 11. In addition, the EC50 with HIV-1RF (setting [11]) stood at 3.7 µM.
In the case of `COc1cc(OC)cc(C(=O)Sc2ccccc2C(=O)NCCC(N)=O)c1` [Compound 12], the EC50 in the data set with HIV p24 worked out at 3.5 µM; in the data set on HIV-1RF (setting [11]) it was 8.1 µM. The “Therapeutic Index” value in the data set on HIV p24 is recorded as 39; with HIV-1RF (HIV-1RF, CEM-SS cells) it was 13. The IC50 at 7 days in data set [7] worked out at 102 µM. The half-life in data set [8] is 7.75 h. Moreover, it took 136 µM to reach half-maximal inhibition in data set [9] (IC50).
In the case of `CCOC(=O)CNC(=O)Sc1ccccc1C(=O)N[C@@H](C)C(N)=O` [Compound 116], the 50% inhibitory concentration (IC50) at 7 days in [7] was 77.6 µM. The “Therapeutic Index” value in the data set on HIV-1RF (HIV-1RF, CEM-SS cells) stood at 147. Moreover, the EC50 in the data set on HIV-1RF (setting [11]) turned out to be 0.53 µM.
`CCNC(=O)Sc1ccccc1C(=O)NCCC(N)=O` [Compound 113] came in with an IC50 at 7 days in data set [7] of 103 µM. For the same compound, the “Therapeutic Index” value in the data set with HIV-1RF (HIV-1RF, CEM-SS cells) came to 148. The EC50 with HIV-1RF (setting [11]) came to 0.69 µM.
As to `NC(=O)N=NC(N)=O` [ADA, azodicarbonamide], the “Inactivation of HIV-1 virus” value in the data set on HIV-1 virus is reported as “inactivates HIV-1 virus”.
`CC(C)(C)NC(=O)Sc1ccccc1C(=O)NCC(N)=O` [Compound 142] registered an IC50 at 7 days in data set [7] of 20 µM. In the data set with HIV-1RF (HIV-1RF, CEM-SS cells), the “Therapeutic Index” value amounted to 2.9. Besides, in the data set with HIV-1RF (setting [11]), the concentration giving a half-maximal response (EC50) worked out at 6.9 µM.
With `NC(=O)CNC(=O)c1ccccc1SC(=O)NCCBr` [Compound 110], the half-maximal inhibitory concentration (IC50) at 7 days in [7] came to 5.23 µM. Moreover, in the data set on HIV-1RF (HIV-1RF, CEM-SS cells), the “Therapeutic Index” value is given as 3.4. The concentration giving a half-maximal response (EC50) in the data set on HIV-1RF (Human immunodeficiency virus 1, CEM-SS, 168 h) was 1.53 µM.
`CCCCNC(=O)Sc1ccccc1C(=O)N[C@H](C)C(N)=O` [Compound 117] gave a half-inhibitory concentration (IC50) at 7 days in data set [7] of 32.2 µM. The “Therapeutic Index” value in the data set with HIV-1RF (HIV-1RF, CEM-SS cells) is recorded as 64. Moreover, the concentration giving a half-maximal response (EC50) in the data set with HIV-1RF (setting [11]) was 0.51 µM.
Taken in the same sequence, the figures for `NC(=O)CNC(=O)c1ccccc1SC(=O)OCCCCCl` [Compound 80] were 200 µM, 65 and 3.07 µM.
